# Values quoted from earlier work in US9585896B2, “Compositions comprising omega-3 fatty acids and vitamin D for psoriasis, and methods and uses thereof” (PRONOVA BIOPHARMA NORGE AS, priority 2012, dated 2017).
# Tested on: patients with psoriasis
# Details: over a 12-week period, versus high-dose etanercept
substance,measurement,value
Ustekinumab: FDA-approved IL-12/IL-23 blocker targeting the common domain p40,efficacy in patients with psoriasis,higher efficacy than high-dose etanercept
